The numbers were not newly measured in US6645913B2, “Adjuvant composition” (Cognis Corporation, priority 1999, dated 2003), which cites them from elsewhere.

Each structure is given as a SMILES string.

The conditions of this data set: glyphosate in acid form.

`O=C(O)CNCP(=O)(O)O` [glyphosate, N-phosphonomethylglycine]: the water solubility result is “about 1.2%”.
